Test system: trephine defect
Assay: Bony ingrowth / regeneration in the trephine defect after systemic treatment of mice
Assay type: in vivo
Conditions: systemic administration
Protocol: Mice and Injury Model: All experiments are performed in accordance with the IACUC guidelines. C57BL/6J wild-type mice aged 8-12 weeks are purchased from Jackson Laboratories (Bar Harbor, Me.). Mice are randomized to receive one of #1) no injury; #2) an implant stud having a porous polyethylene-polypropylene coating placed in a defect in the distal femur. […] Treatment Groups: Mice in each of the 4 experimental groups are randomly assigned to receive once daily one of: #1) saline i.p. injection; #2) AMD3100 (10 mg/kg, i.p.; PLERIXAFOR®; Genzyme Corp., Cambridge, Mass.) injection; #3) Teriparatide (0.285 mcg/kg, i.p.; FORTEO®; Eli Lilly and Company, Indianapolis, Ind.); or #4) AMD3100 (10 mg/kg, i.p.; PLERIXAFOR®; Genzyme Corp., Cambridge, Mass.); and teriparatide (0.285 mcg/kg, i.p.; FORTEO®; Eli Lilly and Company, Indianapolis, Ind.). […] BM is flushed from mouse long bones using PBS/10% FBS/5% EDTA, as previously described. Mononuclear cells (MNCs) from the peripheral blood and BM are isolated by density gradient centrifugation using Histopaque 1083 (Sigma-Aldrich; St. Louis, Mo.). […] Adobe Photoshop CS3 is used to segment and quantify positive CD31 staining. The vascular density of mouse wounds is determined by quantifying the total area of CD31+ staining (red) per megapixel (1×106 pixels square area) of wound stained.

| Structure (SMILES) | bony ingrowth / bony regeneration [%] |
| --- | --- |
| c1cc(CN2CCCNCCNCCCNCC2)ccc1CN1CCCNCCNCCCNCC1 [AMD3100] | 59.7 |
| CC[C@H](C)[C@H](NC(=O)[C@H](CCC(=O)O)NC(=O)[C@H](CO)NC(=O)[C@@H](NC(=O)[C@@H](N)CO)C(C)C)C(=O)N[C@@H](CCC(N)=O)C(=O)N[C@@H](CC(C)C)C(=O)N[C@@H](CCSC)C(=O)N[C@@H](Cc1cnc[nH]1)C(=O)N[C@@H](CC(N)=O)C(=O)N[C@@H](CC(C)C)C(=O)NCC(=O)N[C@@H](CCCCN)C(=O)N[C@@H](Cc1cnc[nH]1)C(=O)N[C@@H](CC(C)C)C(=O)N[C@@H](CC(N)=O)C(=O)N[C@@H](CO)C(=O)N[C@@H](CCSC)C(=O)N[C@@H](CCC(=O)O)C(=O)N[C@@H](CCCN=C(N)N)C(=O)N[C@H](C(=O)N[C@@H](CCC(=O)O)C(=O)N[C@@H](Cc1c[nH]c2ccccc12)C(=O)N[C@@H](CC(C)C)C(=O)N[C@@H](CCCN=C(N)N)C(=O)N[C@@H](CCCCN)C(=O)N[C@@H](CCCCN)C(=O)N[C@@H](CC(C)C)C(=O)N[C@@H](CCC(N)=O)C(=O)N[C@@H](CC(=O)O)C(=O)N[C@H](C(=O)N[C@@H](Cc1cnc[nH]1)C(=O)N[C@@H](CC(N)=O)C(=O)N[C@@H](Cc1ccccc1)C(=O)O)C(C)C)C(C)C [PTH] | 56 |
